Test results: ChEMBL document CHEMBL6083254, “Optimization of B-Ring-Functionalized Antimalarial Tambjamines and Prodiginines” (J Med Chem, 2024)

Key:
Plasmodium yoelii = test: Antiplasmodial activity against asexual erythrocytic stage of Plasmodium yoelii infected in female CFI mouse model assessed as reduction in parasitemia at 25 mg/kg, po administered once daily for 4 days and measured on day 5 by Giemsa staining based microscopic analysis relative to control; type: functional; design: scale not given: the % may be the effect or the level left; conditions: time 5 day
HepG2 = test: Cytotoxicity against human HepG2 cells assessed as cell viability incubated for 72 hrs by MTT assay; type: toxicity, cell-based; conditions: hepg2
Plasmodium falciparum [1] = test: microbe, parasite or virus in culture; conditions: D6, 72 h
in vitro = conditions: human
Description: Selectivity index, ratio of IC50 for cytotoxicity against human HepG2 cells assessed as cell viability to IC50 for antiplasmodial activity against asexual erythrocytic stage of Plasmodium falciparum D6 assessed as inhibition of parasitic growth incubated

Plasmodium falciparum [2] = test: microbe, parasite or virus in culture; conditions: Tm90-C2B, 72 h
Plasmodium falciparum [3] = test: microbe, parasite or virus in culture; conditions: Dd2, 72 h
[4] = Metabolic stability in human liver microsomes assessed as half life measured upto 60 mins LC-MS analysis
[5] = Metabolic stability in mouse liver microsomes assessed as intrinsic clearance measured upto 60 mins LC-MS analysis
[6] = Aqueous solubility of compound in PBS buffer at pH 7.4 incubated for 90 mins by UV-vis spectroscopic analysis; conditions: pH 7.4, 1.5 h
[7] = Metabolic stability in human liver microsomes assessed as intrinsic clearance measured upto 60 mins LC-MS analysis
[8] = Metabolic stability in mouse liver microsomes assessed as half life measured upto 60 mins LC-MS analysis

IC50 (Plasmodium falciparum [1])	IC50 (Plasmodium falciparum [2])	IC50 (Plasmodium falciparum [3])	half-life at 1 h [4]	microsomal CLint at 1 h [5]	solubility [6]	microsomal CLint at 1 h [7]	half-life at 1 h [8]	Structure (SMILES)	Activity (Plasmodium yoelii)	IC50 (HepG2)	selectivity ratio (in vitro)
193 nM	204 nM	242 nM	–	–	–	–	–	Cl.FC(F)(F)Oc1ccc(OC2=CC(c3ccc[nH]3)=N/C2=C\NC23CC4CC(CC(C4)C2)C3)cc1	83%	28200 nM	146
–	–	–	–	–	–	–	–	OC(c1cc(C(F)(F)F)nc2c(C(F)(F)F)cccc12)C1CCCCN1 (stereo unspecified) [MEFLOQUINE]	–	13700 nM	–
89.7 nM	68.8 nM	62.3 nM	–	–	–	–	–	CC(C)CN/C=C1\N=C(c2ccc[nH]2)C=C1OCc1ccc(Cl)cc1	–	6960 nM	78
32.8 nM	39 nM	44.2 nM	–	–	–	–	–	CCCCCCCCCCCCN/C=C1\N=C(c2ccc[nH]2)C=C1OCCC.Cl	16.4%	4440 nM	135
2.01 nM	2.43 nM	1.82 nM	45.4 min	24.6 µL/min/mg	< 3.125 µM	30.6 µL/min/mg	56.4 min	Cl.FC(F)(F)Oc1ccc(COC2=CC(c3ccc[nH]3)=N/C2=C\NC23CC4CC(CC(C4)C2)C3)cc1	81.8%	3740 nM	1860
0.497 nM	0.715 nM	0.77 nM	17.7 min	42.4 µL/min/mg	115 µM	78.3 µL/min/mg	32.7 min	CCOC1=CC(c2ccc[nH]2)=N/C1=C\NC12CC3CC(CC(C3)C1)C2.Cl	24%	1070 nM	2150
–	884 nM	1690 nM	–	–	–	–	–	CC(C)CN/C=C1\N=C(c2ccc[nH]2)C=C1Oc1ccccc1	–	–	–
354 nM	276 nM	317 nM	–	–	–	–	–	C1=C(Oc2ccccc2)/C(=C/NC2CCCCCC2)N=C1c1ccc[nH]1	–	–	–
1190 nM	1690 nM	> 2500 nM	–	–	–	–	–	FC(F)(F)Oc1ccc(OC2=CC(c3ccc[nH]3)=N/C2=C\NC2CCCCCC2)cc1	–	–	–
48.7 nM	52.1 nM	58 nM	–	–	–	–	–	CC(C)CN/C=C1\N=C(c2ccc[nH]2)C=C1OCc1ccccc1.Cl	0%	8860 nM	182
1320 nM	2300 nM	1400 nM	–	–	–	–	–	CCCCCCCCCCCc1ccc(/C=C2\N=C(c3ccc[nH]3)C=C2Oc2ccc(Cl)cc2)[nH]1	–	–	–
> 2500 nM	> 2500 nM	> 2500 nM	–	–	–	–	–	CC(C)CN/C=C1\N=C(c2ccc[nH]2)C=C1Oc1ccc(OC(F)(F)F)cc1	–	–	–
25.9 nM	17.7 nM	22 nM	34.7 min	18.9 µL/min/mg	7.88 µM	40 µL/min/mg	> 60 min	C1=C(Oc2ccccc2)/C(=C/NC23CC4CC(CC(C4)C2)C3)N=C1c1ccc[nH]1.Cl	>99%	8570 nM	331
> 2500 nM	> 2500 nM	> 2500 nM	–	–	–	–	–	CCCCCCCCCCCc1ccc(/C=C2\N=C(c3ccc[nH]3)C=C2OCc2ccc(OC(F)(F)F)cc2)[nH]1	–	–	–
> 2500 nM	> 2500 nM	> 2500 nM	–	–	–	–	–	CC(C)CN/C=C1\N=C(c2ccc[nH]2)C=C1Oc1ccc(Cl)cc1	–	–	–
14.1 nM	11.4 nM	8.56 nM	–	–	–	–	–	Cl.Clc1ccc(COC2=CC(c3ccc[nH]3)=N/C2=C\NC23CC4CC(CC(C4)C2)C3)cc1	40%	2250 nM	160
410 nM	305 nM	340 nM	–	–	–	–	–	CCCCCCCCCCCCN/C=C1\N=C(c2ccc[nH]2)C=C1OCc1ccc(Cl)cc1	–	–	–

IC50 (Plasmodium falciparum [1])	IC50 (Plasmodium falciparum [2])	IC50 (Plasmodium falciparum [3])	half-life at 1 h [4]	microsomal CLint at 1 h [5]	solubility [6]	microsomal CLint at 1 h [7]	half-life at 1 h [8]	Structure (SMILES)	Activity (Plasmodium yoelii)	IC50 (HepG2)	selectivity ratio (in vitro)
–	335 nM	205 nM	–	–	–	–	–	CC(C)CN/C=C1\N=C(c2ccc[nH]2)C=C1OCc1ccc(OC(F)(F)F)cc1	–	–	–
> 2500 nM	> 2500 nM	> 2500 nM	–	–	–	–	–	CCCCCCCCCCCCN/C=C1\N=C(c2ccc[nH]2)C=C1Oc1ccc(OC(F)(F)F)cc1	–	–	–
6.45 nM	5.25 nM	7.49 nM	19.3 min	17.8 µL/min/mg	5.91 µM	71.7 µL/min/mg	> 60 min	C1=C(OCc2ccccc2)/C(=C/NC23CC4CC(CC(C4)C2)C3)N=C1c1ccc[nH]1.Cl	63%	1100 nM	171
–	54.6 nM	60.2 nM	–	–	–	–	–	CCCCCCCCCCCCN/C=C1\N=C(c2ccc[nH]2)C=C1OCc1ccccc1.Cl	0%	7740 nM	144
413 nM	320 nM	350 nM	–	–	–	–	–	CCCCCCCCCCCCN/C=C1\N=C(c2ccc[nH]2)C=C1OCc1ccc(OC(F)(F)F)cc1	–	–	–
1.17 nM	1.61 nM	1.45 nM	32 min	31.8 µL/min/mg	52.2 µM	42.8 µL/min/mg	43.5 min	CCCOC1=CC(c2ccc[nH]2)=N/C1=C\NC12CC3CC(CC(C3)C1)C2.Cl	81.8%	2510 nM	2140
11.1 nM	12.7 nM	9.68 nM	–	–	–	–	–	CCCCCCCCCCCCN/C=C1\N=C(c2ccc[nH]2)C=C1OCC.Cl	0%	4350 nM	391
–	0.348 nM	0.632 nM	35.2 min	26 µL/min/mg	77.7 µM	39.4 µL/min/mg	53.2 min	CCCOC1=CC(c2ccc[nH]2)=N/C1=C\NC1CCCCCC1.Cl	75.5%	2890 nM	7960
7.33 nM	4.93 nM	5.27 nM	35.7 min	14.4 µL/min/mg	178 µM	38.8 µL/min/mg	> 60 min	CCOC1=CC(c2ccc[nH]2)=N/C1=C\NC1CCCCCC1.Cl	8.5%	2260 nM	–
49.5 nM	26.3 nM	38.7 nM	–	–	–	–	–	Cl.FC(F)(F)Oc1ccc(COC2=CC(c3ccc[nH]3)=N/C2=C\NC2CCCCCC2)cc1	72.3%	5720 nM	116
> 2500 nM	> 2500 nM	> 2500 nM	–	–	–	–	–	CCCCCCCCCCCCN/C=C1\N=C(c2ccc[nH]2)C=C1Oc1ccccc1	–	–	–
20.9 nM	23.1 nM	15.5 nM	–	–	–	–	–	CCCOC1=CC(c2ccc[nH]2)=N/C1=C\NCC(C)C.Cl	75.4%	7630 nM	365
29.7 nM	37.2 nM	37.5 nM	–	–	–	–	–	CCCCCCCCCCCCN/C=C1\N=C(c2ccc[nH]2)C=C1OC(C)C.Cl	0%	3070 nM	103
121 nM	97.8 nM	79.9 nM	–	–	–	–	–	Clc1ccc(COC2=CC(c3ccc[nH]3)=N/C2=C\NC2CCCCCC2)cc1	–	8480 nM	70
52.8 nM	28.3 nM	22 nM	> 60 min	2.1 µL/min/mg	–	6.72 µL/min/mg	> 60 min	Cl.Clc1ccc(OC2=CC(c3ccc[nH]3)=N/C2=C\NC23CC4CC(CC(C4)C2)C3)cc1	58%	–	275
–	34.2 nM	37.7 nM	–	–	–	–	–	CC(C)CN/C=C1\N=C(c2ccc[nH]2)C=C1OC(C)C.Cl	0%	7420 nM	201
517 nM	561 nM	681 nM	–	–	–	–	–	Clc1ccc(OC2=CC(c3ccc[nH]3)=N/C2=C\NC2CCCCCC2)cc1	–	–	–

Structure (SMILES)	IC50 (Plasmodium falciparum [1])	IC50 (Plasmodium falciparum [2])	IC50 (Plasmodium falciparum [3])	half-life at 1 h [4]	microsomal CLint at 1 h [5]	solubility [6]	microsomal CLint at 1 h [7]	half-life at 1 h [8]	Activity (Plasmodium yoelii)	IC50 (HepG2)	selectivity ratio (in vitro)
CCCCCCCCCCCc1ccc(/C=C2\N=C(c3ccc[nH]3)C=C2OCc2ccc(Cl)cc2)[nH]1	–	1850 nM	939 nM	–	–	–	–	–	–	–	–
CC(C)OC1=CC(c2ccc[nH]2)=N/C1=C\NC12CC3CC(CC(C3)C1)C2.Cl	1.78 nM	2.05 nM	2 nM	14.2 min	44.8 µL/min/mg	78 µM	97.6 µL/min/mg	30.9 min	74.1%	1270 nM	715
CCOC1=CC(c2ccc[nH]2)=N/C1=C\NCC(C)C.Cl	30 nM	41.6 nM	46.7 nM	–	–	–	–	–	0%	4620 nM	154
CCCCCCCCCCCCN/C=C1\N=C(c2ccc[nH]2)C=C1OC	65.9 nM	96.9 nM	69.9 nM	–	–	–	–	–	–	6100 nM	93
COC1=CC(c2ccc[nH]2)=N/C1=C\NCC(C)C	112 nM	103 nM	92.8 nM	–	–	–	–	–	18.2%	19100 nM	170
CCCCCCCCCCCCN/C=C1\N=C(c2ccc[nH]2)C=C1Oc1ccc(Cl)cc1	> 2500 nM	> 2500 nM	> 2500 nM	–	–	–	–	–	–	–	–
CCCCCCCCCCCc1ccc(/C=C2\N=C(c3ccc[nH]3)C=C2Oc2ccc(OC(F)(F)F)cc2)[nH]1	> 2500 nM	> 2500 nM	> 2500 nM	–	–	–	–	–	–	–	–
